Data as given in patent US10738093B2, “Discovery of cationic nonribosomal peptides as Gram-negative antibiotics through global genome mining” (The Hong Kong University of Science and Technology, priority 2018, dated 2020).
Positions of bridges follow the written chain, without caps; N, C: chain ends. Non-standard residues stand in square brackets, D forms with d. Residues, ends and D or L forms follow the SMILES beside them. ξ: configuration not given here. *: point of attachment. Hexanoyl(4ξ-Me) = CCC(C)CCC(=O)*; dOrn = NCCC[C@@H](N)C(=O)O; Orn = NCCC[C@H](N)C(=O)O

Tests used:
[1] = test system: Saccharomyces cerevisiae VL-48; assay: MIC, Saccharomyces cerevisiae; type: cell-based
Protocol: Minimum inhibitory concentration (MIC) was determined by broth microdilution according to CLSI guidelines. The test medium for most species was Mueller-Hinton broth (MHB). Bacteria were grown overnight to early stationary phase and adjusted in MHB to 5.0×10^5 colony-forming units per mL (c.f.u./mL) in the wells of 96-well microtiter plates, mixed with varying concentrations of test compounds and incubated at 37° C. for 24 h. […] MHBs containing 10% fetal bovine serum (Gibco), 21 mM MgCl, or 1.0 mg/ml LPS (lipopolysaccharides from Escherichia coli O55:B5, Sigma-Aldrich) were used to test their inhibitory effects.

[2] = test system: Escherichia coli ATCC 25922; assay: Resistance acquisition during serial passaging; type: cell-based; conditions: serial passaging at subinhibitory concentrations over 30 days
Protocol: Escherichia coli ATCC 25922 was inoculated into MHB overnight at 37° C. with continuous shaking. Cells were diluted 10,000 times in MHB to about 1×10^6 c.f.u./mL. […] Plates with bacteria were incubated at 37° C. without shaking. […] This process was repeated for 30 d, and the final MIC was confirmed by the same antibacterial assay described above. The experiment was performed in quadruplicate, and on each day, the sample that developed the highest resistance was measured to plot the curve.

[3] = LPS binding by isothermal titration calorimetry; design: species or system Escherichia coli; conditions: ITC
Protocol: Microcalorimetric experiments of peptide binding to LPS were performed on an MCS isothermal titration calorimeter (ITC) (Microcal, Northampton, Mass.) at 37° C. LPS was prepared as a 50 μM aqueous suspension in 20 mM HEPES (pH 7.0) buffer by suspension, sonication and temperature cycling between 5° C. and 70° C. This suspension was stored at 4° C. overnight prior to use. 100 μM peptide solutions (brevicidine and polymyxin B) were prepared in the same buffer and all solutions were degassed prior to use by stirring under vacuum for 5 min at 37° C. After thermal equilibration, 5 μL aliquots of the peptide solution were added every 3 min into the lipid-containing cell at 37° C. and stirred constantly. The change in heat during the titration steps was registered in real time and raw data were processed using the Origin® 7 software provided with the instrument. In control experiments, the corresponding peptide solution (or LPS solution) was injected into the buffer without LPS (or without peptide).

SMILES: CCC(C)CCC(=O)N[C@H](CC(N)=O)C(=O)N[C@H](Cc1ccc(O)cc1)C(=O)N[C@H](Cc1c[nH]c2ccccc12)C(=O)N[C@H](CCCN)C(=O)N[C@@H](CCCN)C(=O)NCC(=O)N[C@H](CCCN)C(=O)N[C@@H](Cc1c[nH]c2ccccc12)C(=O)N[C@@H]1C(=O)N[C@@H]([C@@H](C)CC)C(=O)NCC(=O)N[C@H](CO)C(=O)O[C@@H]1C (stereo partly drawn) [Compound 1, 4-Methyl-Hexanoyl-D-Asn-D-Tyr-D-Trp-D-Orn-Orn-Gly-D-Orn-Trp-Thr-Ile-Gly-Ser (cyclized via lactone formation between Thr and the C-terminus)] ({Hexanoyl(4ξ-Me)}-[dN][dY][dW][dOrn][Orn]G[dOrn]WTIG[dS]; ester 9-C)
- MIC ([1]; Saccharomyces cerevisiae): >64 µg/mL
- MIC Sc ([1]; Table 2, Saccharomyces cerevisiae VL-48): ND (ND >64 μg/ml)
- development of resistance [2]: development of resistance was not observed
- Kd ([3]; 37° C., read-out: dissociation constant Kd for LPS): 6.5 µM
- binding to LPS ([3]; FIGS. 18a-18b): strong binding to LPS
